Data as given in patent US8669251B2, “8-fluorophthalazin-1(2H)-one compounds” (Genentech, Inc., priority 2011, dated 2014).

System: production of CD69 by B lymphocytes in human whole blood
Assay: CD69 Whole Blood Assay (CD69 Hu Blood FACS)
Assay type: cell-based
Settings: human whole blood activated with goat F(ab')2 anti-human IgM, 20 hours; CD69 on CD20 positive cells by FACS; Table 1
Text: A CD69 Whole Blood Assay can be conducted on Formula I compounds to determine the ability of compounds to inhibit the production of CD69 by B lymphocytes in human whole blood activated by crosslinking surface IgM with goat F(ab′)2 anti-human IgM (Example 907). CD69 is a type II C-type lectin involved in lymphocyte migration and cytokine secretion. CD69 expression represents one of the earliest available indicators of leukocyte activation and its rapid induction occurs through transcriptional activation (Vazquez et al (2009) Jour. of Immunology Published Oct. 19, 2009, doi:10.4049/jimmunol.0900839). Concentration-dependent inhibition of antigen receptor stimulation by selective Btk inhibitors induces cell surface expression of the lymphocyte activation marker CD69 (Honigberg et al (2010) Proc. Natl. Acad. Sci. 107(29):13075-13080). Thus, CD69 inhibition by selective Btk inhibitors may be correlated with therapeutic efficacy of certain B-cell disorders.
Human blood is obtained from healthy volunteers, with the following restrictions: 1 week drug-free, non-smokers. Blood (approximately 20 mls to test 8 compounds) is collected by venipuncture into Vacutainer® (Becton, Dickinson and Co.) tubes with sodium heparin.
Solutions of Formula I and II compounds at 10 mM in DMSO are diluted 1:10 in 100% DMSO, then are diluted by three-fold serial dilutions in 100% DMSO for a ten point dose-response curve. The compounds are further diluted 1:10 in PBS and then an aliquot of 5.5 μl of each compound is added in duplicate to a 2 ml 96-well plate; 5.5 μl of 10% DMSO in PBS is added as control and no-stimulus wells. Human whole blood —HWB (100 μl) is added to each well. After mixing the plates are incubated at 37° C., 5% CO2, 100% humidity for 30 minutes. Goat F(ab′)2 anti-human IgM (10 μl of a 500 μg/ml solution, 50 μg/ml final) is added to each well (except the no-stimulus wells) with mixing and the plates are incubated for an additional 20 hours. At the end of the 20 hour incubation, samples are incubated with fluorescent labeled antibodies for 30 minutes, at 37° C., 5% CO2, 100% humidity. Include induced control, unstained and single stains for compensation adjustments and initial voltage settings. Samples are then lysed with PharM Lyse™ (BD Biosciences Pharmingen) according to the manufacturer's instructions. Samples are then transferred to a 96 well plate suitable to be run on the BD Biosciences HTS 96 well system on the LSRII machine. Data acquired and Mean Fluorescence Intensity values were obtained using BD Biosciences DIVA Software. Results are initially analyzed by FACS analysis software (Flow Jo). […] The inhibitory concentration (IC50, IC70, IC90) values are calculated by Prism version 5, using a nonlinear regression curve fit.

SMILES | CD69 Hu Blood FACS (IC70) [nM]
CC[C@H]1CN(C2COC2)CCN1c1ccc(Nc2cc(-c3cc(F)cc(-n4ncc5cc(C(C)(C)C)cc(F)c5c4=O)c3CO)cn(C)c2=O)nc1 [Compound 111, (S)-6-tert-butyl-2-(3-(5-(5-(2-ethyl-4-(oxetan-3-yl)piperazin-1-yl)pyridin-2-ylamino)-1-methyl-6-oxo-1,6-dihydropyridin-3-yl)-5-fluoro-2-(hydroxymethyl)phenyl)-8-fluorophthalazin-1(2H)-one] | 37.4
Cn1cc(-c2cc(F)cc(-n3ncc4cc(C(C)(C)C)cc(F)c4c3=O)c2CO)cc(Nc2ccc(N3CCN(C4COC4)CC3)cn2)c1=O [Compound 102, 6-tert-butyl-8-fluoro-2-(5-fluoro-2-(hydroxymethyl)-3-(1-methyl-5-(5-(4-(oxetan-3-yl)piperazin-1-yl)pyridin-2-ylamino)-6-oxo-1,6-dihydropyridin-3-yl)phenyl)phthalazin-1(2H)-one] | 12
Cn1cc(-c2ccnc(-n3ncc4cc(C(C)(C)C)cc(F)c4c3=O)c2CO)cc(Nc2ccc(N3CCN(C4COC4)CC3)cn2)c1=O [Compound 103, 6-tert-butyl-8-fluoro-2-(3-(hydroxymethyl)-4-(1-methyl-5-(5-(4-(oxetan-3-yl)piperazin-1-yl)pyridin-2-ylamino)-6-oxo-1,6dihydropyridin-3-yl)pyridin-2-yl)phthalazin-1(2H)-one] | 13
CN1CCN(c2ccc(Nc3cc(-c4cccc(-n5ncc6cc(C(C)(C)C)cc(F)c6c5=O)c4CO)cn(C)c3=O)nc2)CC1 [Compound 101, 6-tert-butyl-8-fluoro-2-(2-(hydroxymethyl)-3-(1-methyl-5-(5-(4-methylpiperazin-1-yl)pyridin-2-yl-amino)-6-oxo-1,6-dihydropyridin-3-yl)phenyl)phthalazin-1(2H)-one] | 24
C[C@@H]1CN(C2COC2)CCN1c1ccc(Nc2cc(-c3cc(F)cc(-n4ncc5cc(C(C)(C)C)cc(F)c5c4=O)c3CO)cn(C)c2=O)nc1 [Compound 107, (R)-6-tert-butyl-8-fluoro-2-(5-fluoro-2-(hydroxymethyl)-3-(1-methyl-5-(5-(2-methyl-4-(oxetan-3-yl)piperazin-1-yl)pyridin-2-ylamino)-6-oxo-1,6-dihydropyridin-3-yl)phenyl)phthalazin-1(2H)-one] | 26.3
C[C@H]1CN(C2COC2)CCN1c1ccc(Nc2cc(-c3cc(F)cc(-n4ncc5cc(C(C)(C)C)cc(F)c5c4=O)c3CO)cn(C)c2=O)nc1 [Compound 104, (S)-6-tert-butyl-8-fluoro-2-(5-fluoro-2-(hydroxymethyl)-3-(1-methyl-5-(5-(2-methyl-4-(oxetan-3-yl)piperazin-1-yl)pyridin-2-ylamino)-6-oxo-1,6-dihydropyridin-3-yl)phenyl)phthalazin-1(2H)-one] | 32.9

Same assay, conditions: human whole blood activated with goat F(ab')2 anti-human IgM, 20 hours; CD69 on CD20 positive cells by FACS; Table 2

SMILES | CD69 Hu Blood FACS (IC70) [nM]
CN1Cc2cc(Nc3cc(-c4ccnc(-n5ncc6cc(C(C)(C)C)cc(F)c6c5=O)c4CO)cn(C)c3=O)nn2CC1=O [Compound 146, 6-tert-butyl-8-fluoro-2-[3-(hydroxymethyl)-4-[1-methyl-5-[(5-methyl-6-oxo-4,7-dihydropyrazolo[1,5-a]pyrazin-2-yl)amino]-6-oxo-3-pyridyl]-2-pyridyl]phthalazin-1-one] | 20.9
Cn1cc(-c2ccnc(-n3ncc4cc(C(C)(C)C)cc(F)c4c3=O)c2CO)cc(Nc2ccc(C(C)(C)C#N)cn2)c1=O [Compound 156, 2-[6-[[5-[2-(6-tert-butyl-8-fluoro-1-oxo-phthalazin-2-yl)-3-(hydroxymethyl)-4-pyridyl]-1-methyl-2-oxo-3-pyridyl]amino]-3-pyridyl]-2-methyl-propanenitrile] | 31
CC(=O)N1CCn2nc(Nc3cc(-c4ccnc(-n5ncc6cc(C(C)(C)C)cc(F)c6c5=O)c4CO)cn(C)c3=O)cc2C1 [Compound 124, 2-[4-[5-[(5-acetyl-6,7-dihydro-4H-pyrazolo[1,5-a]pyrazin-2-yl)amino]-1-methyl-6-oxo-3-pyridyl]-3-(hydroxymethyl)-2-pyridyl]-6-tert-butyl-8-fluoro-phthalazin-1-one] | 41.5
Cc1nccc(Nc2cc(-c3ccnc(-n4ncc5cc(C(C)(C)C)cc(F)c5c4=O)c3CO)cn(C)c2=O)n1 [Compound 114, 6-tert-butyl-8-fluoro-2-[3-(hydroxymethyl)-4-[1-methyl-5-[(2-methylpyrimidin-4-yl)amino]-6-oxo-3-pyridyl]-2-pyridyl]phthalazin-1-one] | 11.4
Cc1cnc(Nc2cc(-c3ccnc(-n4ncc5cc(C(C)(C)C)cc(F)c5c4=O)c3CO)cn(C)c2=O)o1 [Compound 125, 6-tert-butyl-8-fluoro-2-[3-(hydroxymethyl)-4-[1-methyl-5-[(5-methyloxazol-2-yl)amino]-6-oxo-3-pyridyl]-2-pyridyl]phthalazin-1-one] | 521
C[C@H]1CN(C2COC2)CCN1c1ccc(Nc2cc(-c3ccnc(-n4ncc5cc(C(C)(C)C)cc(F)c5c4=O)c3CO)c[nH]c2=O)nc1 [Compound 138, 6-tert-butyl-8-fluoro-2-[3-(hydroxymethyl)-4-[5-[[5-[(2S)-2-methyl-4-(oxetan-3-yl)piperazin-1-yl]-2-pyridyl]amino]-6-oxo-1H-pyridin-3-yl]-2-pyridyl]phthalazin-1-one] | 12.4
CN1CCc2nc(Nc3cc(-c4ccnc(-n5ncc6cc(C(C)(C)C)cc(F)c6c5=O)c4CO)cn(C)c3=O)sc2C1 [Compound 115, 6-tert-butyl-8-fluoro-2-[3-(hydroxymethyl)-4-[1-methyl-5-[(5-methyl-6,7-dihydro-4H-thiazolo[5,4-c]pyridin-2-yl)amino]-6-oxo-3-pyridyl]-2-pyridyl]phthalazin-1-one] | 73.2
Cn1nc(Nc2cc(-c3ccnc(-n4ncc5cc(C(C)(C)C)cc(F)c5c4=O)c3CO)cn(C)c2=O)cc1C(=O)N1CCCC1 [Compound 144, 6-tert-butyl-8-fluoro-2-[3-(hydroxymethyl)-4-[1-methyl-5-[[1-methyl-5-(pyrrolidine-1-carbonyl)pyrazol-3-yl]amino]-6-oxo-3-pyridyl]-2-pyridyl]phthalazin-1-one] | 20.3
Cc1cc(Nc2cc(-c3ccnc(-n4ncc5cc(C(C)(C)C)cc(F)c5c4=O)c3CO)cn(C)c2=O)n[nH]1 [Compound 121, 6-tert-butyl-8-fluoro-2-[3-(hydroxymethyl)-4-[1-methyl-5-[(5-methyl-1H-pyrazol-3-yl)amino]-6-oxo-3-pyridyl]-2-pyridyl]phthalazin-1-one] | 79.3
Cc1cnc(Nc2cc(-c3ccnc(-n4ncc5cc(C(C)(C)C)cc(F)c5c4=O)c3CO)cn(C)c2=O)s1 [Compound 120, 6-tert-butyl-8-fluoro-2-[3-(hydroxymethyl)-4-[1-methyl-5-[(5-methylthiazol-2-yl)amino]-6-oxo-3-pyridyl]-2-pyridyl]phthalazin-1-one] | 139
Cn1cc(-c2ccnc(-n3ncc4cc(C(C)(C)C)cc(F)c4c3=O)c2CO)cc(Nc2ccncn2)c1=O [Compound 113, 6-tert-butyl-8-fluoro-2-[3-(hydroxymethyl)-4-[1-methyl-6-oxo-5-(pyrimidin-4-ylamino)-3-pyridyl]-2-pyridyl]phthalazin-1-one] | 82.3
CC(C)N1Cc2cc(Nc3cc(-c4ccnc(-n5ncc6cc(C(C)(C)C)cc(F)c6c5=O)c4CO)cn(C)c3=O)nn2CC1=O [Compound 151, 6-tert-butyl-8-fluoro-2-[3-(hydroxymethyl)-4-[5-[(5-isopropyl-6-oxo-4,7-dihydropyrazolo[1,5-a]pyrazin-2-yl)amino]-1-methyl-6-oxo-3-pyridyl]-2-pyridyl]phthalazin-1-one] | 14.1
Cc1cc(Nc2cc(-c3ccnc(-n4ncc5cc(C(C)(C)C)cc(F)c5c4=O)c3CO)cn(C)c2=O)ns1 [Compound 157, 6-tert-butyl-8-fluoro-2-[3-(hydroxymethyl)-4-[1-methyl-5-[(5-methylisothiazol-3-yl)amino]-6-oxo-3-pyridyl]-2-pyridyl]phthalazin-1-one] | 157
CCn1nc(Nc2cc(-c3ccnc(-n4ncc5cc(C(C)(C)C)cc(F)c5c4=O)c3CO)cn(C)c2=O)cc1C [Compound 118, 6-tert-butyl-2-[4-[5-[(1-ethyl-5-methyl-pyrazol-3-yl)amino]-1-methyl-6-oxo-3-pyridyl]-3-(hydroxymethyl)-2-pyridyl]-8-fluoro-phthalazin-1-one] | 112
